Assay: mn = molality of the nth substance listed, in mol/kg
Conditions: Liquid, Capillary tube (Ostwald / Ubbelohde) method

O=[N+]([O-])[O-].O=[N+]([O-])[O-].[Ni+2] [nickel(II) nitrate] + O
viscosity [mPa·s]
Conditions	100 kPa	10000 kPa	20000 kPa	30000 kPa
372.49 K, m1 = 1.368	–	–	0.4824	0.4869
372.54 K, m1 = 0.05	0.2921	0.2949	0.2984	0.3015
372.84 K, m1 = 1.824	0.5558	0.5612	0.5672	0.5721
373.06 K, m1 = 0.288	–	0.3246	0.3275	0.3318
373.82 K, m1 = 0.608	–	0.36	0.3643	0.3681
375.48 K, m1 = 2.246	–	0.619	0.6251	0.6322
375.81 K, m1 = 0.951	0.395	0.399	0.4042	0.407
394.58 K, m1 = 2.246	–	0.5162	0.5211	0.5279
394.68 K, m1 = 0.05	–	0.2391	0.2416	0.2449
396.43 K, m1 = 0.951	–	0.3329	0.3365	0.3403
397.82 K, m1 = 0.153	–	0.2441	0.2474	0.2509
398.42 K, m1 = 0.288	–	0.2566	0.2608	0.2633
398.49 K, m1 = 0.608	–	0.289	0.293	0.2967
398.61 K, m1 = 0.218	–	0.249	0.2532	0.2549
399.46 K, m1 = 1.368	–	0.3743	0.3789	0.384
399.46 K, m1 = 1.824	–	0.4393	0.4445	0.4496
412.58 K, m1 = 2.246	–	0.4452	0.4505	0.4568
416.89 K, m1 = 1.368	–	0.327	0.3311	0.3363
421.95 K, m1 = 0.05	–	0.1929	0.1958	0.1985
422.49 K, m1 = 1.824	–	0.3682	0.3726	0.378
422.81 K, m1 = 0.288	–	0.2142	0.2168	0.2198
422.83 K, m1 = 0.951	–	0.2731	0.2767	0.2807
423.73 K, m1 = 0.608	–	0.2402	0.2435	0.2468
424.57 K, m1 = 0.153	–	0.1989	0.203	0.205
424.57 K, m1 = 0.218	–	0.2053	0.2081	0.2119
426.84 K, m1 = 2.246	–	0.4007	0.4063	0.4124
426.89 K, m1 = 1.368	–	0.3051	0.3095	0.3134
446.79 K, m1 = 2.246	–	0.3515	0.3578	0.3622
447.26 K, m1 = 1.368	–	0.2684	0.2714	0.276
448.24 K, m1 = 1.824	–	0.3116	0.3159	0.3211
448.96 K, m1 = 0.288	–	0.1818	0.1845	0.1878
449.28 K, m1 = 0.153	–	0.1703	0.1741	0.1764
449.46 K, m1 = 0.608	–	0.205	0.2085	0.2114
449.48 K, m1 = 0.951	–	0.2309	0.2347	0.2382
449.65 K, m1 = 0.05	–	0.1611	0.1639	0.1661
449.72 K, m1 = 0.218	–	0.175	0.1778	0.1807
471.51 K, m1 = 0.153	–	0.151	0.1534	0.1565
472.15 K, m1 = 0.05	–	0.142	0.1447	0.1468
472.46 K, m1 = 2.246	–	0.304	0.3094	0.314
473.12 K, m1 = 1.824	–	0.2716	0.2768	0.2808
473.87 K, m1 = 0.288	–	0.1591	0.1628	0.1645
474.24 K, m1 = 0.218	–	0.1536	0.156	0.1592
474.83 K, m1 = 0.608	–	0.1805	0.1834	0.186
475.84 K, m1 = 1.368	–	0.23	0.2342	0.2375
